Assay results as given in ChEMBL document CHEMBL2439947, “Intermolecular interaction of voriconazole analogues with model membrane by DSC and NMR, and their antifungal activity using NMR based metabolic profiling” (2013).
≈ marks a conversion by molar mass, not a printed value. Calls of active or inactive are those of the source. The calls are words filed in the database; no cut-off is given here.

What was measured:
[1] = system: Lipid bilayer; experiment: Binding affinity to DPPC liposomes assessed as change in pre-transition temperature at 1:2 drug to DPPC liposome molar ratio by differential scanning calorimetric analysis
[2] = system: Candida albicans; experiment: Antifungal activity against Candida albicans ATCC 10231 assessed as acetate level after 18 hrs by [1H] NMR spectroscopic analysis; format: functional
[3] = system: Lipid bilayer; experiment: Binding affinity to DPPC liposomes at 1:5 drug to DPPC liposome molar ratio by [13C] NMR spectroscopic analysis
[4] = system: Candida albicans; experiment: Antifungal activity against Candida albicans ATCC 10231 assessed as ethanol level after 24 hrs by [1H] NMR spectroscopic analysis; format: functional
[5] = system: Candida albicans; experiment: Antifungal activity against Candida albicans ATCC 10231 assessed as acetate level after 24 hrs by [1H] NMR spectroscopic analysis; format: functional
[6] = system: Lipid bilayer; experiment: Binding affinity to DPPC liposomes assessed as melting temperature at 1:2 drug to DPPC liposome molar ratio by differential scanning calorimetric analysis
[7] = system: Lipid bilayer; experiment: Binding affinity to DPPC liposomes by 2D-NOESY spectroscopic analysis
[8] = system: Candida albicans; experiment: Antifungal activity against Candida albicans ATCC 10231 assessed as pyruvate level after 32 hrs by [1H] NMR spectroscopic analysis; format: functional
[9] = system: Lipid bilayer; experiment: Binding affinity to DPPC liposomes after 2 hrs by double reciprocal plot analysis
[10] = system: Lipid bilayer; experiment: Binding affinity to DPPC liposomes assessed as melting temperature at 1:5 drug to DPPC liposome molar ratio by differential scanning calorimetric analysis
[11] = system: Candida albicans; experiment: Antifungal activity against Candida albicans ATCC 10231 assessed as ethanol level after 32 hrs by [1H] NMR spectroscopic analysis; format: functional
[12] = system: Candida albicans; experiment: Antifungal activity against Candida albicans ATCC 10231 assessed as pyruvate level after 18 hrs by [1H] NMR spectroscopic analysis; format: functional
[13] = system: Lipid bilayer; experiment: Binding affinity to DPPC liposomes assessed as change in pre-transition temperature at 1:10 drug to DPPC liposome molar ratio by differential scanning calorimetric analysis
[14] = system: Lipid bilayer; experiment: Binding affinity to DPPC liposomes at 1:5 drug to DPPC liposome molar ratio by [1H] NMR spectroscopic analysis
[15] = system: Candida albicans; experiment: Antifungal activity against Candida albicans ATCC 10231 after 48 hrs by tube dilution method; format: functional; settings: ATCC 10231, 48 h
[16] = system: Candida albicans; experiment: Antifungal activity against Candida albicans ATCC 10231 assessed as pyruvate level after 24 hrs by [1H] NMR spectroscopic analysis; format: functional
[17] = system: Candida albicans; experiment: Antifungal activity against Candida albicans ATCC 10231 after 24 hrs by broth microdilution method; format: functional; settings: ATCC 10231, 24 h
[18] = system: Lipid bilayer; experiment: Binding affinity to DPPC liposomes assessed as melting temperature at 1:10 drug to DPPC liposome molar ratio by differential scanning calorimetric analysis
[19] = system: Lipid bilayer; experiment: Binding affinity to DPPC liposomes assessed as change in pre-transition temperature at 1:5 drug to DPPC liposome molar ratio by differential scanning calorimetric analysis
[20] = system: Candida albicans; experiment: Antifungal activity against Candida albicans ATCC 10231 assessed as ethanol level after 18 hrs by [1H] NMR spectroscopic analysis; format: functional
[21] = system: Candida albicans; experiment: Antifungal activity against Candida albicans ATCC 10231 assessed as acetate level after 32 hrs by [1H] NMR spectroscopic analysis; format: functional
[22] = system: Lipid bilayer; experiment: Binding affinity to DPPC liposomes at 1:2 to 1:10 drug to DPPC liposome molar ratio by [31P] NMR spectroscopic analysis
[23] = system: Lipid bilayer; experiment: Binding affinity to DPPC liposomes after 2 hrs by spectrophotometric analysis relative to control

Structure (SMILES): C[C@@H](c1ncncc1F)[C@@](Cn1cncn1)(OC(=O)c1ccccc1)c1ccc(F)cc1F [VORICONAZOLE BENZOATE]
- Activity [1]: Active
- Activity [2]: 6 µg/mL
- Activity [3]: Active
- Activity [4]: 4 µg/mL
- Activity [5]: 4 µg/mL
- Tm [6]: 39.5 °C
- Activity [7]: Active
- Activity [8]: 3 µg/mL
- Kapp [9]: 1.22 M⁻¹
- Tm [10]: 39.5 °C
- Activity [11]: 4 µg/mL
- Activity [12]: 4 µg/mL
- T [13]: 30.1 °C
- Activity [14]: Active
- MIC [15]: 4 µg/mL (≈ 8.82 µM)
- Activity [16]: 3 µg/mL
- MIC [17]: 4 µg/mL (≈ 8.82 µM)
- Tm [18]: 40.9 °C
- Activity [19]: Active
- Activity [20]: 5 µg/mL
- Activity [21]: 4 µg/mL
- Activity [22]: Active

Structure (SMILES): C[C@@H](c1ncncc1F)[C@@](Cn1cncn1)(OC(=O)c1ccc([N+](=O)[O-])cc1)c1ccc(F)cc1F [VORICONAZOLE P-NITRO BENZOATE]
- Activity [1]: Active
- Activity [2]: 8 µg/mL
- Activity [3]: Active
- Activity [4]: 7 µg/mL
- Activity [5]: 7 µg/mL
- Tm [6]: 59.6 °C
- Activity [7]: Active
- Activity [8]: 5 µg/mL
- Kapp [9]: 0.505 M⁻¹
- Tm [10]: 60 °C
- Activity [11]: 7 µg/mL
- Activity [12]: 5 µg/mL
- Activity [13]: Active
- Activity [14]: Active
- MIC [15]: 8 µg/mL (≈ 16.1 µM)
- Activity [16]: 5 µg/mL
- MIC [17]: 7 µg/mL (≈ 14 µM)
- Tm [18]: 60 °C
- Activity [19]: Active
- Activity [20]: 8 µg/mL
- Activity [21]: 6 µg/mL
- Activity [22]: Active

Structure (SMILES): Cc1ccc(C(=O)O[C@@](Cn2cncn2)(c2ccc(F)cc2F)[C@@H](C)c2ncncc2F)cc1 [VORICONAZOLE TOLUATE]
- Activity [1]: Active
- Activity [2]: 6 µg/mL
- Activity [3]: Active
- Activity [4]: 5 µg/mL
- Activity [5]: 6 µg/mL
- Tm [6]: 32.4 °C
- Activity [7]: Active
- Activity [8]: 3 µg/mL
- Kapp [9]: 0.871 M⁻¹
- Tm [10]: 32.6 °C
- Activity [11]: 4 µg/mL
- Activity [12]: 4 µg/mL
- Activity [13]: Active
- Activity [14]: Active
- MIC [15]: 5 µg/mL (≈ 10.7 µM)
- Activity [16]: 3 µg/mL
- MIC [17]: 5 µg/mL (≈ 10.7 µM)
- Tm [18]: 34 °C
- Activity [19]: Active
- Activity [20]: 5 µg/mL
- Activity [21]: 5 µg/mL
- Activity [22]: Active

Structure (SMILES): COc1ccc(C(=O)O[C@@](Cn2cncn2)(c2ccc(F)cc2F)[C@@H](C)c2ncncc2F)cc1 [VORICONAZOLE P-METHOXY BENZOATE]
- Activity [1]: Active
- Activity [2]: 4 µg/mL
- Activity [3]: Active
- Activity [4]: 3 µg/mL
- Activity [5]: 3 µg/mL
- Tm [6]: 38.3 °C
- Activity [7]: Active
- Activity [8]: 1 µg/mL
- Kapp [9]: 1.16 M⁻¹
- Tm [10]: 39.1 °C
- Activity [23]: 50%
- Activity [11]: 2 µg/mL
- Activity [12]: 2 µg/mL
- Activity [13]: Active
- Activity [14]: Active
- MIC [15]: 3 µg/mL (≈ 6.21 µM)
- Activity [16]: 1 µg/mL
- MIC [17]: 3 µg/mL (≈ 6.21 µM)
- Tm [18]: 39.2 °C
- Activity [19]: Active
- Activity [20]: 3 µg/mL
- Activity [21]: 2 µg/mL
- Activity [22]: Active

Structure (SMILES): C[C@@H](c1ncncc1F)[C@](O)(Cn1cncn1)c1ccc(F)cc1F [VORICONAZOLE]
- Activity [1]: Active
- Activity [2]: 3 µg/mL
- Activity [3]: Active
- Activity [4]: 1 µg/mL
- Activity [5]: 2 µg/mL
- Tm [6]: 37.4 °C
- Activity [7]: Active
- Activity [8]: 1 µg/mL
- Kapp [9]: 0.0543 M⁻¹
- Tm [10]: 38.5 °C
- Activity [11]: 1 µg/mL
- Activity [12]: 1 µg/mL
- Activity [13]: Active
- Activity [14]: Active
- MIC [15]: 1 µg/mL (≈ 2.86 µM)
- Activity [16]: 1 µg/mL
- MIC [17]: 1 µg/mL (≈ 2.86 µM)
- Tm [18]: 38.5 °C
- Activity [19]: Active
- Activity [20]: 2 µg/mL
- Activity [21]: 2 µg/mL
- Activity [22]: inactive
